Laboratory results published in patent US20250170090A1, “METHOD FOR PREVENTING OR TREATING DISEASE OR DISORDER ASSOCIATED WITH ANTINEOPLASTIC AGENT” (ONQUALITY PHARMACEUTICALS CHINA LTD., priority 2022, published 2025).
Read-outs that look alike come from different tables or passages of the source.

Tests used:
[1] = test system: hand-foot syndrome induced by anti-tumor agents; assay: Prevention of hand-foot syndrome induced by anti-tumor agents in rats, NO-NSAID ointment on hind paws (Table 2-2); assay type: in vivo, SD rats; conditions: Rattus norvegicus, topical, read-out: Control rate; for responders at 1 %: ointment 1% wt; for responders at 3 %: ointment 3% wt
Procedure, shortened: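 Female SD rats (8 weeks, ~200 g; 10/group) received anti-tumour agents by daily oral gavage in Cremophor EL:ethanol 1:1 diluted ~3× with PBS. NO-NSAID or blank ointment was applied to hind paws once daily, 4 h restrained, then wiped off. Control rate = blank-group minus treated-group hand-foot syndrome incidence.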

HUVEC cells = assay: CCK-8 cell viability: alleviation of proliferative toxicity of anti-tumor agents on HUVEC cells (Tables 7-1, 7-2); assay type: cell-based; conditions: for activation at 100 µM: Homo sapiens, 24 h, percentage increase in viable cells vs anti-tumor agent alone, read-out: Response rate % (average)
Procedure, shortened: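 HUVEC cells were treated with anti-tumor agent (DMSO solvent) alone or combined with NO-NSAID (ethanol or water solvent), and NO-NSAID solvent controls were used for correction. After 24-48 h of culture, viability was read by CCK-8 to derive proliferative toxicity and how much NO-NSAID mitigated it.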

[2] = 120 h, Sorafenib 80 mg/kg once a day, Days 5
[3] = 432 h, Regorafenib 90 mg/kg once a day, Days 18
[4] = Afatinib (10 μM), NO-NSAID 100 μM
[5] = Cabozantinib (5 μM), NO-NSAID 100 μM
[6] = Dabrafenib (10 μM), NO-NSAID 100 μM
[7] = Everolimus (5 μM), NO-NSAID 100 μM
[8] = Anlotinib (5 μM), NO-NSAID 100 μM
[9] = Apatinib (10 μM), NO-NSAID 100 μM
[10] = Axitinib (10 μM), NO-NSAID 100 μM
[11] = Dacomitinib (5 μM), NO-NSAID 100 μM
[12] = Encorafenib (5 μM), NO-NSAID 100 μM
[13] = Erdafitinib (10 μM), NO-NSAID 100 μM
[14] = Famitinib (5 μM), NO-NSAID 100 μM
[15] = Fruquintinib (10 μM), NO-NSAID 100 μM
[16] = Gefitinib (10 μM), NO-NSAID 100 μM
[17] = Infigratinib (15 μM), NO-NSAID 100 μM
[18] = Lapatinib (5 μM), NO-NSAID 100 μM
[19] = Lenvatinib (10 μM), NO-NSAID 100 μM
[20] = Olmutinib (10 μM), NO-NSAID 100 μM
[21] = Regorafenib (5 μM), NO-NSAID 100 μM
[22] = Selumetinib (5 μM), NO-NSAID 100 μM
[23] = Sorafenib (5 μM), NO-NSAID 100 μM
[24] = Sunitinib (5 μM), NO-NSAID 100 μM
[25] = Vemurafenib (5 μM), NO-NSAID 100 μM
[26] = 432 h, Cabozantinib 50 mg/kg once a day, Days 18

CC(=O)Oc1ccccc1C(=O)OCOC(=O)CCCCCO[N+](=O)[O-] [Compound A3]
responders at 1 % [1, 2]: 50%
responders at 3 % [1, 2]: 57.1%
responders at 1 % [1, 3]: 42.9%
responders at 3 % [1, 3]: 71.4%
NO-NSAID response rate % (average) (HUVEC cells; Afatinib (10 μM), NO-NSAID 0.1 μM): 15%
NO-NSAID response rate % (average) (HUVEC cells; Afatinib (10 μM), NO-NSAID 1 μM): 24%
NO-NSAID response rate % (average) (HUVEC cells; [4]): 32%
NO-NSAID response rate % (average) (HUVEC cells; Afatinib (10 μM), NO-NSAID 500 μM): 22%
NO-NSAID response rate % (average) (HUVEC cells; Cabozantinib (5 μM), NO-NSAID 0.1 μM): 14%
NO-NSAID response rate % (average) (HUVEC cells; Cabozantinib (5 μM), NO-NSAID 1 μM): 29%
NO-NSAID response rate % (average) (HUVEC cells; [5]): 56%
NO-NSAID response rate % (average) (HUVEC cells; Cabozantinib (5 μM), NO-NSAID 500 μM): 24%
NO-NSAID response rate % (average) (HUVEC cells; Dabrafenib (10 μM), NO-NSAID 0.1 μM): 25%
NO-NSAID response rate % (average) (HUVEC cells; Dabrafenib (10 μM), NO-NSAID 1 μM): 30%
NO-NSAID response rate % (average) (HUVEC cells; [6]): 64%
NO-NSAID response rate % (average) (HUVEC cells; Dabrafenib (10 μM), NO-NSAID 500 μM): 33%
NO-NSAID response rate % (average) (HUVEC cells; Everolimus (5 μM), NO-NSAID 0.1 μM): −8%
NO-NSAID response rate % (average) (HUVEC cells; Everolimus (5 μM), NO-NSAID 1 μM): −8%
NO-NSAID response rate % (average) (HUVEC cells; [7]): 56%
NO-NSAID response rate % (average) (HUVEC cells; Everolimus (5 μM), NO-NSAID 500 μM): 1%
activation at 100 µM (HUVEC cells; [4]): 32%
activation at 100 µM (HUVEC cells; [8]): 73%
activation at 100 µM (HUVEC cells; [9]): 15%
activation at 100 µM (HUVEC cells; [10]): 35%
activation at 100 µM (HUVEC cells; [5]): 56%
activation at 100 µM (HUVEC cells; [6]): 64%
activation at 100 µM (HUVEC cells; [11]): 32%
activation at 100 µM (HUVEC cells; [12]): 28%
activation at 100 µM (HUVEC cells; [13]): 59%
activation at 100 µM (HUVEC cells; [7]): 56%
activation at 100 µM (HUVEC cells; [14]): 39%
activation at 100 µM (HUVEC cells; [15]): 22%
activation at 100 µM (HUVEC cells; [16]): 26%
activation at 100 µM (HUVEC cells; [17]): 28%
activation at 100 µM (HUVEC cells; [18]): 40%
activation at 100 µM (HUVEC cells; [19]): 69%
activation at 100 µM (HUVEC cells; [20]): 57%
activation at 100 µM (HUVEC cells; [21]): 55%
activation at 100 µM (HUVEC cells; [22]): 49%
activation at 100 µM (HUVEC cells; [23]): 3%
activation at 100 µM (HUVEC cells; [24]): 50%
activation at 100 µM (HUVEC cells; [25]): 80%
NO-NSAID response rate % (average) (HUVEC cells; Infigratinib (15 μM), NO-NSAID 0.1 μM): 18%
NO-NSAID response rate % (average) (HUVEC cells; Infigratinib (15 μM), NO-NSAID 1 μM): 28%
NO-NSAID response rate % (average) (HUVEC cells; [17]): 28%
NO-NSAID response rate % (average) (HUVEC cells; Infigratinib (15 μM), NO-NSAID 500 μM): 20%
NO-NSAID response rate % (average) (HUVEC cells; Lapatinib (5 μM), NO-NSAID 0.1 μM): 20%
NO-NSAID response rate % (average) (HUVEC cells; Lapatinib (5 μM), NO-NSAID 1 μM): 20%
NO-NSAID response rate % (average) (HUVEC cells; [18]): 40%
NO-NSAID response rate % (average) (HUVEC cells; Lapatinib (5 μM), NO-NSAID 500 μM): 19%
NO-NSAID response rate % (average) (HUVEC cells; Lenvatinib (10 μM), NO-NSAID 0.1 μM): 21%
NO-NSAID response rate % (average) (HUVEC cells; Lenvatinib (10 μM), NO-NSAID 1 μM): 14%
NO-NSAID response rate % (average) (HUVEC cells; [19]): 69%
NO-NSAID response rate % (average) (HUVEC cells; Lenvatinib (10 μM), NO-NSAID 500 μM): 20%
NO-NSAID response rate % (average) (HUVEC cells; Olmutinib (10 μM), NO-NSAID 0.1 μM): 27%
NO-NSAID response rate % (average) (HUVEC cells; Olmutinib (10 μM), NO-NSAID 1 μM): 35%
NO-NSAID response rate % (average) (HUVEC cells; [20]): 57%
NO-NSAID response rate % (average) (HUVEC cells; Olmutinib (10 μM), NO-NSAID 500 μM): 23%
NO-NSAID response rate % (average) (HUVEC cells; Regorafenib (5 μM), NO-NSAID 0.1 μM): 32%
NO-NSAID response rate % (average) (HUVEC cells; Regorafenib (5 μM), NO-NSAID 1 μM): 37%
NO-NSAID response rate % (average) (HUVEC cells; [21]): 55%
NO-NSAID response rate % (average) (HUVEC cells; Regorafenib (5 μM), NO-NSAID 500 μM): 26%
NO-NSAID response rate % (average) (HUVEC cells; Selumetinib (5 μM), NO-NSAID 0.1 μM): 28%
NO-NSAID response rate % (average) (HUVEC cells; Selumetinib (5 μM), NO-NSAID 1 μM): 53%
NO-NSAID response rate % (average) (HUVEC cells; [22]): 49%
NO-NSAID response rate % (average) (HUVEC cells; Selumetinib (5 μM), NO-NSAID 500 μM): 34%
NO-NSAID response rate % (average) (HUVEC cells; Sorafenib (5 μM), NO-NSAID 0.1 μM): 13%
NO-NSAID response rate % (average) (HUVEC cells; Sorafenib (5 μM), NO-NSAID 1 μM): 7%
NO-NSAID response rate % (average) (HUVEC cells; [23]): 3%
NO-NSAID response rate % (average) (HUVEC cells; Sorafenib (5 μM), NO-NSAID 500 μM): 29%
NO-NSAID response rate % (average) (HUVEC cells; Sunitinib (5 μM), NO-NSAID 0.1 μM): 10%
NO-NSAID response rate % (average) (HUVEC cells; Sunitinib (5 μM), NO-NSAID 1 μM): 37%
NO-NSAID response rate % (average) (HUVEC cells; [24]): 50%
NO-NSAID response rate % (average) (HUVEC cells; Sunitinib (5 μM), NO-NSAID 500 μM): 7%

CC(=O)Oc1ccccc1C(=O)OCc1no[n+]([O-])c1C(N)=O [Compound A6]
responders at 1 % [1, 2]: 66.7%
responders at 1 % ([1]; 360 h, Encorafenib 80 mg/kg once a day, Days 15): 40%
responders at 1 % [1, 26]: 40%
responders at 3 % [1, 26]: 42.9%
activation at 100 µM (HUVEC cells; [4]): 45%
activation at 100 µM (HUVEC cells; [8]): 50%
activation at 100 µM (HUVEC cells; [9]): 41%
activation at 100 µM (HUVEC cells; [10]): 22%
activation at 100 µM (HUVEC cells; [5]): 0%
activation at 100 µM (HUVEC cells; [6]): 21%
activation at 100 µM (HUVEC cells; [11]): 75%
activation at 100 µM (HUVEC cells; [12]): 51%
activation at 100 µM (HUVEC cells; [13]): 56%
activation at 100 µM (HUVEC cells; [7]): 52%
activation at 100 µM (HUVEC cells; [14]): 66%
activation at 100 µM (HUVEC cells; [15]): 53%
activation at 100 µM (HUVEC cells; [16]): 77%
activation at 100 µM (HUVEC cells; [17]): 32%
activation at 100 µM (HUVEC cells; [18]): 41%
activation at 100 µM (HUVEC cells; [19]): 23%
activation at 100 µM (HUVEC cells; [20]): 28%
activation at 100 µM (HUVEC cells; [21]): 66%
activation at 100 µM (HUVEC cells; [22]): 64%
activation at 100 µM (HUVEC cells; [23]): 24%
activation at 100 µM (HUVEC cells; [24]): 58%
activation at 100 µM (HUVEC cells; [25]): 42%
